# From paper PMC8288134, “Synthesis, potential antitumor activity, cell cycle analysis, and multitarget mechanisms of novel hydrazones incorporating a 4-methylsulfonylbenzene scaffold: a molecular docking study” (Journal of Enzyme Inhibition and Medicinal Chemistry, 2021)
# Like-named read-outs stand apart in the source and are kept apart here.
# Assays:
# RXF 393 = assay: NCI antitumor screen (SRB); format: cell-based; details: Homo sapiens; for inhibition at 10 µM: one dose 10 µM, read-out: Growth inhibition percentage (GI%)
# HCT-116 = assay: NCI antitumor screen (SRB); format: cell-based; details: Homo sapiens; for inhibition at 10 µM: read-out: Growth inhibition percentage (GI%)
# SF-268 = assay: NCI antitumor screen (SRB); format: cell-based; details: Homo sapiens; for inhibition at 10 µM: one dose 10 µM, read-out: Growth inhibition percentage (GI%)
# PRMI-8226 = assay: NCI antitumor screen (SRB); format: cell-based; details: Homo sapiens; for inhibition at 10 µM: one dose 10 µM, read-out: Growth inhibition percentage (GI%)
# ACHN = assay: NCI antitumor screen (SRB); format: cell-based; details: Homo sapiens; for inhibition at 10 µM: one dose 10 µM, read-out: Growth inhibition percentage (GI%)
# HCT-15 = assay: NCI antitumor screen (SRB); format: cell-based; details: Homo sapiens; for inhibition at 10 µM: one dose 10 µM, read-out: Growth inhibition percentage (GI%)
# UACC-62 = assay: NCI antitumor screen (SRB); format: cell-based; details: Homo sapiens; for inhibition at 10 µM: one dose 10 µM, read-out: Growth inhibition percentage (GI%)
# HS 578 T = assay: NCI antitumor screen (SRB); format: cell-based; details: Homo sapiens; for inhibition at 10 µM: one dose 10 µM, read-out: Growth inhibition percentage (GI%)
# HL60 cells = assay: Annexin V-FITC/PI apoptosis assay; format: cell-based, human; details: HL60, 10 µM, 24 h
# Experimental: Apoptosis induction is the most important mechanism by which major chemotherapeutics kill cancer cells. Apoptosis causes cellular changes whereby the translocation of phosphatidylserine (PS) occurs through the plasma membrane from the inside to the outside. Annexin-V can bind to PS, which can be used as a sensitive probe for PS on the outer side of the plasma membrane. […] The AV/PI staining of HL60 cells was performed at a mixed molar concentration of 10 µM with compounds 6, 9, 16, and 20 for 24 h. Figure 4 and Table 5 show the results of treating HL60 cells with compounds 6, 9, 16, and 20 for 24 h.
# According to our previous report, apoptosis induction was performed using the Leukaemia HL-60 cell line and well-established Annexin 5-FITC/PI detection kit. The cell line samples were analysed using FACSCalibur flow cytometer[40]^,[72]. […]
# [(Ti-Tz)/Tz)] x 100 for concentration of which Ti ≤ Tz.
# The induction of apoptosis was performed according to our previous report using Leukemia HL-
# 60 cell line and well-established Annexin 5-FITC/PI detection kit. The cell line samples were
# analyzed using a FACSCalibur flow cytometer. […]
# SN12C = assay: NCI antitumor screen (SRB); format: cell-based; details: Homo sapiens; for inhibition at 10 µM: one dose 10 µM, read-out: Growth inhibition percentage (GI%)
# SK-MEL-28 = assay: NCI antitumor screen (SRB); format: cell-based, human; details: for inhibition at 10 µM: read-out: Growth inhibition percentage (GI%)
# MOLT-4 = assay: NCI antitumor screen (SRB); format: cell-based; details: Homo sapiens; for inhibition at 10 µM: one dose 10 µM, read-out: Growth inhibition percentage (GI%)
# SW-620 = assay: NCI antitumor screen (SRB); format: cell-based; details: Homo sapiens; for inhibition at 10 µM: one dose 10 µM, read-out: Growth inhibition percentage (GI%)
# TK-10 = assay: NCI antitumor screen (SRB); format: cell-based; details: Homo sapiens, one dose 10 µM, read-out: Growth inhibition percentage (GI%)
# KM12 = assay: NCI antitumor screen (SRB); format: cell-based; details: Homo sapiens; for inhibition at 10 µM: one dose 10 µM, read-out: Growth inhibition percentage (GI%)
# SF-539 = assay: NCI antitumor screen (SRB); format: cell-based; details: Homo sapiens; for inhibition at 10 µM: one dose 10 µM, read-out: Growth inhibition percentage (GI%)
# A498 = assay: NCI antitumor screen (SRB); format: cell-based; details: Homo sapiens; for inhibition at 10 µM: one dose 10 µM, read-out: Growth inhibition percentage (GI%)
# MDA-MB-231/ATCC = assay: NCI antitumor screen (SRB); format: cell-based; details: Homo sapiens; for inhibition at 10 µM: one dose 10 µM, read-out: Growth inhibition percentage (GI%)
# OVCAR-4 = assay: NCI antitumor screen (SRB); format: cell-based; details: Homo sapiens; for inhibition at 10 µM: one dose 10 µM, read-out: Growth inhibition percentage (GI%)
# EKVX [1] = assay: NCI antitumor screen (SRB); format: cell-based; details: Homo sapiens; for inhibition at 10 µM: one dose 10 µM, read-out: Growth inhibition percentage (GI%)
# SK-MEL-2 [2] = assay: NCI antitumor screen (SRB); format: cell-based; details: Homo sapiens
# CCRF-CEM = assay: NCI antitumor screen (SRB); format: cell-based; details: Homo sapiens; for inhibition at 10 µM: one dose 10 µM, read-out: Growth inhibition percentage (GI%)
# [3] = tested on: breast cancer tumour cell lines; details: cited from earlier work
# OVCAR-8 = tested on: OVCAR-8; parameters: method as in https://dtp.cancer.gov/dtpstandard/dwindex/index.jsp; details: reference drugs, ref https://dtp.cancer.gov/dtpstandard/dwindex/index.jsp; cited from earlier work
# [4] = tested on: NSC lung cancer tumour cell lines; details: cited from earlier work
# DU-145 = tested on: DU-145; parameters: method as in https://dtp.cancer.gov/dtpstandard/dwindex/index.jsp; details: reference drugs, ref https://dtp.cancer.gov/dtpstandard/dwindex/index.jsp; cited from earlier work
# IGROV1 = tested on: IGROV1; parameters: method as in https://dtp.cancer.gov/dtpstandard/dwindex/index.jsp; details: reference drugs, ref https://dtp.cancer.gov/dtpstandard/dwindex/index.jsp; cited from earlier work
# M14 = tested on: M14; parameters: method as in https://dtp.cancer.gov/dtpstandard/dwindex/index.jsp; details: reference drugs, ref https://dtp.cancer.gov/dtpstandard/dwindex/index.jsp; cited from earlier work
# BT-549 = tested on: BT-549; parameters: method as in https://dtp.cancer.gov/dtpstandard/dwindex/index.jsp; details: reference drugs, ref https://dtp.cancer.gov/dtpstandard/dwindex/index.jsp; cited from earlier work
# EKVX [5] = tested on: EKVX; parameters: method as in https://dtp.cancer.gov/dtpstandard/dwindex/index.jsp; details: reference drugs, ref https://dtp.cancer.gov/dtpstandard/dwindex/index.jsp; cited from earlier work
# NCI-H23 = tested on: NCI-H23; parameters: method as in https://dtp.cancer.gov/dtpstandard/dwindex/index.jsp; details: reference drugs, ref https://dtp.cancer.gov/dtpstandard/dwindex/index.jsp; cited from earlier work
# SNB-19 = tested on: SNB-19; parameters: method as in https://dtp.cancer.gov/dtpstandard/dwindex/index.jsp; details: reference drugs, ref https://dtp.cancer.gov/dtpstandard/dwindex/index.jsp; cited from earlier work
# SK-MEL-2 [6] = tested on: SK-MEL-2; parameters: method as in https://dtp.cancer.gov/dtpstandard/dwindex/index.jsp; details: reference drugs, ref https://dtp.cancer.gov/dtpstandard/dwindex/index.jsp; cited from earlier work
# MALME-3M = tested on: MALME-3M; parameters: method as in https://dtp.cancer.gov/dtpstandard/dwindex/index.jsp; details: reference drugs, ref https://dtp.cancer.gov/dtpstandard/dwindex/index.jsp; cited from earlier work
# [7] = Homo sapiens, SK-MEL-28, SK-MEL-28, one dose 10 µM
# [8] = SK-MEL-2, read-out: Growth inhibition percentage (GI%)
# [9] = five concentrations 0.01-100 µM
# [10] = read-out: LC50 (subpanel average), reference drugs, ref https://dtp.cancer.gov/dtpstandard/dwindex/index.jsp
# [11] = reference drugs, ref https://dtp.cancer.gov/dtpstandard/dwindex/index.jsp
structure (smiles),measurement,setting,value
"Cc1ccc(C=NNC(=O)c2ccc(S(C)(=O)=O)cc2)cc1 [Compound 9, N'-(4-Methylbenzylidene)-4-(methylsulfonyl)benzohydrazide]",inhibition at 10 µM,RXF 393,< 10%
same,inhibition at 10 µM,HCT-116,13.9%
same,inhibition at 10 µM,SF-268,< 10%
same,inhibition at 10 µM,PRMI-8226,< 10%
same,inhibition at 10 µM,ACHN,< 10%
same,inhibition at 10 µM,HCT-15,16.3%
same,inhibition at 10 µM,UACC-62,19.1%
same,inhibition at 10 µM,HS 578 T,< 10%
same,"Apoptosis, early",HL60 cells,5.66%
same,"Apoptosis, late",HL60 cells,9.04%
same,"Apoptosis, total (annexin V-FITC positive cells)",HL60 cells,16.89%
same,Necrosis,HL60 cells,2.19%
same,inhibition at 10 µM,SN12C,< 10%
same,inhibition at 10 µM,SK-MEL-28; [7],< 10%
same,inhibition at 10 µM,MOLT-4,22.6%
same,inhibition at 10 µM,SW-620,15.2%
same,inhibition at 10 µM,TK-10,< 10%
same,inhibition at 10 µM,KM12,25.1%
same,inhibition at 10 µM,SF-539,< 10%
same,inhibition at 10 µM,A498,17.9%
same,inhibition at 10 µM,MDA-MB-231/ATCC,< 10%
same,inhibition at 10 µM,OVCAR-4,< 10%
same,inhibition at 10 µM,EKVX [1],< 10%
same,inhibition at 10 µM,SK-MEL-2 [2]; [8],19.8%
same,inhibition at 10 µM,CCRF-CEM,20.8%
CS(=O)(=O)c1ccc(C(=O)N/N=C/c2ccccc2O)cc1 [Compound 16],inhibition at 10 µM,RXF 393,47%
same,inhibition at 10 µM,HCT-116,70.9%
same,inhibition at 10 µM,SF-268,61.6%
same,inhibition at 10 µM,PRMI-8226,51.3%
same,inhibition at 10 µM,ACHN,71.7%
same,inhibition at 10 µM,HCT-15,82%
same,inhibition at 10 µM,UACC-62,83.6%
same,inhibition at 10 µM,HS 578 T,18.5%
same,"Apoptosis, early",HL60 cells,7.34%
same,"Apoptosis, late",HL60 cells,13.41%
same,"Apoptosis, total (annexin V-FITC positive cells)",HL60 cells,22.41%
same,Necrosis,HL60 cells,1.66%
same,inhibition at 10 µM,SN12C,41.4%
same,inhibition at 10 µM,"SK-MEL-28; Homo sapiens, SK-MEL-28, one dose 10 µM",44.1%
same,inhibition at 10 µM,MOLT-4,90.8%
same,inhibition at 10 µM,SW-620,56.7%
same,inhibition at 10 µM,TK-10,54.2%
same,inhibition at 10 µM,KM12,65.9%
same,inhibition at 10 µM,SF-539,44.7%
same,inhibition at 10 µM,A498,24.8%
same,inhibition at 10 µM,MDA-MB-231/ATCC,52.6%
same,inhibition at 10 µM,OVCAR-4,56.3%
same,inhibition at 10 µM,EKVX [1],74.2%
same,inhibition at 10 µM,SK-MEL-2 [2]; [8],60%
same,inhibition at 10 µM,CCRF-CEM,84.7%
CCN(CC)c1ccc(/C=N/NC(=O)c2ccc(S(C)(=O)=O)cc2)c(O)c1 [Compound 20],GI50,RXF 393; [9],271 nM
same,inhibition at 10 µM,RXF 393,71.5%
same,GI50,HCT-116,121 nM
same,inhibition at 10 µM,HCT-116,81.6%
same,GI50,SF-268; [9],78.9 nM
same,inhibition at 10 µM,SF-268,78.2%
same,GI50,PRMI-8226; [9],297 nM
same,inhibition at 10 µM,PRMI-8226,79%
same,GI50,ACHN; [9],117 nM
same,inhibition at 10 µM,ACHN,82.9%
same,GI50,HCT-15; [9],92 nM
same,inhibition at 10 µM,HCT-15,71.5%
same,GI50,UACC-62; [9],234 nM
same,inhibition at 10 µM,UACC-62,> 100%
same,GI50,HS 578 T; [9],11700 nM
same,inhibition at 10 µM,HS 578 T,32%
same,"Apoptosis, early",HL60 cells,8.42%
same,"Apoptosis, late",HL60 cells,12.66%
same,"Apoptosis, total (annexin V-FITC positive cells)",HL60 cells,24.31%
same,Necrosis,HL60 cells,3.23%
same,GI50,SN12C; [9],354 nM
same,inhibition at 10 µM,SN12C,68.8%
same,inhibition at 10 µM,SK-MEL-28; [7],72.9%
same,GI50,"SK-MEL-28; Homo sapiens, SK-MEL-28, five concentrations 0.01-100 µM",340 nM
same,Growth inhibition percentage (GI%),"SK-MEL-28; SK-MEL-28, one dose 10 µM",72.8%
same,GI50,MOLT-4; [9],164 nM
same,inhibition at 10 µM,MOLT-4,97.3%
same,GI50,SW-620; [9],387 nM
same,inhibition at 10 µM,SW-620,67%
same,inhibition at 10 µM,TK-10,69.5%
same,GI50,KM12; [9],404 nM
same,inhibition at 10 µM,KM12,74.1%
same,GI50,SF-539; [9],244 nM
same,inhibition at 10 µM,SF-539,96%
same,GI50,A498; [9],9810 nM
same,inhibition at 10 µM,A498,54.7%
same,GI50,MDA-MB-231/ATCC; [9],308 nM
same,inhibition at 10 µM,MDA-MB-231/ATCC,56.8%
same,GI50,OVCAR-4; [9],63 nM
same,inhibition at 10 µM,OVCAR-4,65.3%
same,GI50,EKVX [1]; [9],162 nM
same,inhibition at 10 µM,EKVX [1],84.5%
same,GI50,"SK-MEL-2 [2]; SK-MEL-2, five concentrations 0.01-100 µM",307 nM
same,inhibition at 10 µM,"SK-MEL-2 [2]; SK-MEL-2, one dose 10 µM, read-out: Growth inhibition percentage (GI%)",80.5%
same,GI50,CCRF-CEM; [9],78 nM
same,inhibition at 10 µM,CCRF-CEM,93.1%
"CNC(=O)c1cc(Oc2ccc(NC(=O)Nc3ccc(Cl)c(C(F)(F)F)c3)cc2)ccn1 [Sorafenib, sorafenib]",CC50,[3]; [10],57300 nM
same,TGI (subpanel average),[3]; [11],9350 nM
same,GI50,OVCAR-8,3160 nM
same,CC50,[4]; [10],49200 nM
same,TGI (subpanel average),[4]; [11],7990 nM
same,GI50,DU-145,3160 nM
same,GI50,IGROV1,2510 nM
same,GI50,M14,1990 nM
same,GI50,BT-549,3160 nM
same,GI50,EKVX [5],2510 nM
same,GI50,NCI-H23,1990 nM
same,GI50,SNB-19,3160 nM
same,GI50,SK-MEL-2 [6],1990 nM
same,GI50,MALME-3M,1990 nM
